Experimental data reported in PubChem BioAssay AID1959 (Broad Institute, 2009).
Active and inactive are the calls of the source.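 Rule for the calls: active = growth-inhibition EC50 no more than tenfold above the top tested dose; inconclusive = flat fit between 30% and 70% inhibition, or unreliable fit; inactive = EC50 more than tenfold above the top tested dose.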

Test system: E. coli NEB5alpha growth, BacTiter-Glo luminescence, 4 h
Assay: antibacterial activity against E. coli NEB5alpha – luminescence, counter-screen for MEX-5/POS-1 RNA-binding inhibitor project, dose response (AID 1959);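 note: pUC19-transformed ampicillin-resistant cells grown in LB with ampicillin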

| SMILES | EC50 |
| --- | --- |
| COC(=O)[C@@H]1[C@H]2C[C@H]3c4[nH]c5ccccc5c4CCN3C[C@@H]2CC[C@@H]1O | > 11 µM (inactive) |
| C=CCOc1ccc(C2OC34CCCCC3C(C#N)(C#N)C2(C#N)C(=N)O4)cc1 (configuration not stated) | > 11 µM (inactive) |
| Cc1ccc2[nH]c(O)c(N=Nc3ccccc3C)c2c1 | > 11 µM (inactive) |
| COc1ccc(N=Cc2c(O)n(-c3cccc(C)n3)c(=O)c3ccccc23)c(OC)c1 | > 11 µM (inactive) |
| O=C1c2ccccc2C(=O)C1c1ccc2ccccc2n1 | > 11 µM (inactive) |
| O=C(O)c1cccc(-n2cccc2/C=C2/SC(=O)N(CC(=O)N3CCCC3)C2=O)c1 | > 11 µM (inactive) |
| O=C(Cn1cncn1)N/N=C/c1c2ccccc2cc2ccccc12 | > 11 µM (inactive) |
| CCN(CC)c1ccc(/C=C2\C(=O)NC(=S)N(c3ccc(OC)cc3OC)C2=O)o1 | > 11 µM (inactive) |
| N#C/C(=C\c1cc(O)c(O)c(O)c1)C(N)=O | > 11 µM (inactive) |
| C=CCOc1cccc(C2C(C(=O)c3ccc(C)o3)=C(O)C(=O)N2c2nccs2)c1 (configuration not stated) | > 11 µM (inactive) |
| C[C@@H]1Cc2c(O)c(O)cc(O)c2C(=O)O1 | > 11 µM (inactive) |
| CCOC(=O)/C(C#N)=C/c1cc2ccccc2nc1N1CCCCC1 | > 11 µM (inactive) |
| CC(=Nc1ccc(Br)cc1)c1sc2ccccc2c1O | > 11 µM (inactive) |
| N#CC1=C(N)OC2=C(C(=O)CC(c3ccccc3)C2)C1c1ccc2c(c1)OCO2 (configuration not stated) | > 11 µM (inactive) |
| Cc1ccc(Nc2ccc([N+](=O)[O-])ccc2=O)cc1 | > 11 µM (inactive) |
| Cc1ccc(N=Nc2c(O)ccc3n[nH]nc23)cc1 | > 11 µM (inactive) |
| CCN1CCN(Cc2c(O)ccc3c2O/C(=C\c2ccc(C)cc2)C3=O)CC1 | > 11 µM (inactive) |
| O=C(O)c1ccccc1N/N=C/c1c(Sc2nnnn2-c2ccccc2)nc2ccccn2c1=O | > 11 µM (inactive) |
| Cc1c(C(=O)O)cccc1-n1c(C)cc(/C=C(/C#N)C(=O)NCc2ccccc2)c1C | > 11 µM (inactive) |
| COc1ccc(OC)c(C2Nc3c(Cl)ccc(C(=O)O)c3C3C=CCC32)c1 (configuration not stated) | > 11 µM (inactive) |
| CCOc1cc(/C=C2\C(=N)N3N=C(S(C)(=O)=O)SC3=NC2=O)ccc1OCCOc1cccc(OC)c1 | > 11 µM (inactive) |
| COc1ccc(N=Cc2c(O)n(-c3cccc(C)n3)c(=O)c3ccccc23)cc1 | > 11 µM (inactive) |
| Cc1ccccc1NC(=O)CN1C(=O)S/C(=C\c2cccn2-c2cccc(C(=O)O)c2)C1=O | > 11 µM (inactive) |
| CCOc1ccccc1NC(=O)Nc1ccc(OC)nc1 | > 11 µM (inactive) |

| SMILES | EC50 |
| --- | --- |
| N#CC1=C(N)OC2=C(C(=O)CCC2)C1c1ccccc1 (configuration not stated) | > 11 µM (inactive) |
| Cn1ncc2c(NNC(=O)Cc3ccccc3)ncnc21 | > 11 µM (inactive) |
| O=C(N1CCOCC1)N1CCC(n2nnc3cc(F)ccc32)CC1 | > 11 µM (inactive) |
| O=C(Cc1ccccc1)Nc1ccc(N2CCOCC2)cc1N1CCOCC1 | > 11 µM (inactive) |
| COc1cc(/C=N\Nc2ccc([N+](=O)[O-])cc2)ccc1OCC(=O)Nc1ccc(C)c(C)c1 | > 11 µM (inactive) |
| O=C(c1ccccc1)[C@@H]1[C@@H]2C(=O)N(c3ccc(F)cc3)C(=O)[C@@H]2C2CCCN21 (some centres not stated) | > 11 µM (inactive) |
| CCCCOc1ccc(/C=C2/Sc3ccccc3C2=O)cc1 | > 11 µM (inactive) |
| COc1cc(NCCCC(C)N)c2ncccc2c1 (configuration not stated) | > 11 µM (inactive) |
| COC(=O)CNC(=O)C1Nc2ccccc2C2C=CCC12 (configuration not stated) | > 11 µM (inactive) |
| COc1ccc(OC)c(C2=C/C(=C/c3ccccn3)C(=O)O2)c1 | > 11 µM (inactive) |
| CCCC1Nc2ccc(C(=O)O)cc2C2C=CCC12 (configuration not stated) | > 11 µM (inactive) |
| COC(=O)C1CSc2[nH]c(=O)sc2C1c1ccc(OC)c(OC)c1 (configuration not stated) | > 11 µM (inactive) |
| O=C(O)c1cc(Cl)c2c(c1)[C@@H]1C=CC[C@@H]1[C@H](c1ccc(S(=O)(=O)N3CCOCC3)cc1)N2 | > 11 µM (inactive) |
| N#C/C(=N\Nc1ccc(Cl)cc1)C(=O)c1ccsc1 | > 11 µM (inactive) |
| COc1cccc2c1NC(C(=O)O)C1CC=CC21 (configuration not stated) | > 11 µM (inactive) |
| CCC(C)(C)NC(=O)C(c1cccn1C)N(C(=O)Cn1nnc2ccccc21)c1ccc(OC)cc1 (configuration not stated) | > 11 µM (inactive) |
| O=[N+]([O-])c1ccc(/C=N/n2cnc3ccccc32)s1 | > 11 µM (inactive) |
| C=CCn1c(=O)/c(=C/c2ccc(C)o2)s/c1=C(/C#N)C(=O)c1ccccc1 | > 11 µM (inactive) |
| N#C/C(=C/c1cccn1-c1cccc(C(=O)O)c1)c1ccc(F)cc1 | > 11 µM (inactive) |
| CC(=C\c1ccco1)/C=C1/SC(=S)N(CC(=O)O)C1=O | > 11 µM (inactive) |
| CCOC(=O)c1c(NC(=O)Nc2ccc(F)cc2)sc2c1CCN(C)C2 | > 11 µM (inactive) |
| CCOc1cc(C(c2c(C)[nH][nH]c2=O)c2c(C)[nH][nH]c2=O)cc([N+](=O)[O-])c1O | > 11 µM (inactive) |
| CCOc1cc2c(cc1/C=C(/C#N)c1ccc(C(=O)O)cc1)OCO2 | > 11 µM (inactive) |
